# Experimental data from patent publication US5792742A, “Fibrin-binding peptide fragments of fibronectin” (New York University, priority 1994, dated 1998).
# Assays:
# fibrin [1] = test: Fibrin-SEPHAROSE affinity chromatography (binding and elution); parameters: species or system bovine; conditions: temperature change vs denaturing conditions (6M urea or 50% ethylene glycol) for elution
# Procedure: Bovine fibrinogen was cross-linked to CNBr-activated SEPHAROSE™ (5 mg/ml beads) according to the manufacturer's instructions. Coupled fibrinogen was subsequently converted to fibrin by incubation with human thrombin to a final concentration of 5 NIH units/ml and 100 K.I. (kallikrein inhibitory) units/ml of aprotinin (in 0.05M Tris-HCI buffer, pH 7.6, containing 0.1M NaCl and 0.01M EDTA) for three hours, at room temperature (Gold, et al. (1983) Biochemistry 22, 4113-4119).
# 1.0M NaCl in 0.05M tris buffer, pH 8.0.
# The fibrin-binding activity of the proteolytically derived 25.9 kDa fragment of Fn was determined by its ability to bind to a fibrin affinity matrix. […] FBB was used to equilibrate and wash the column. Following warming of the column to 22° C., the column was washed with FBB until absorbance at 280 nm (A280) was less than 0.01, and bound protein eluted with 0.05M Tris-HCl, 0.5M NaCl, 6M urea buffer, pH 7.6.
# The module (500 μg/1.0 ml) was incubated for 4 hours (while rotating) at 4° C. in the presence of 1.0 ml fibrin-SEPHAROSE™ (5 mg fibrin/ml SEPHAROSE™ beads) equilibrated in […] Tris-HCl, 0.1M NaCl buffer, pH 7.6.
# The 11 KDa peptide (50 μg/0.206 ml) was radiolabeled using the IODO-BEAD method (Pierce Chemical). The peptide was added to one IODO-BEAD in the presence of 100 μCi ^125 I (17.4 Ci/mg, New England Nuclear) and incubated on ice for 10 minutes. The bead was removed and the free ^125 I removed by chromatography through a PD10 column containing SEPHADEX™ G-25 (Pharmacia). […] The radioiodinated 11 kDa fibrin-binding peptide (500 μg/1.5 ml) was combined with 1 ml of fibrin-SEPHAROSE™ (5 mg fibrin/ml beads) equilibrated with 50 mM Tris-HCl, 0.1M NaCl buffer, pH 7.6, and rotated for 4 hours, at 4° C. The mixture was poured onto a disposable column (0.6 cm×8.0) and the unbound protein washed through. The column was equilibrated to room temperature and washed with the equilibration buffer.
# fibrin [2] = test: Competitive inhibition of 125I-11 kDa binding to fibrin-coated wells; conditions: 125I-11 kDa 90 nM
# Procedure: Analysis of the binding data was performed by non linear regression and curve fitting to the one-site competitive binding curves (GraphPad Prism).
# fibrin [3] = test: Direct binding ELISA on fibrin-coated microtiter plates
# Procedure: The preparation of fibrin coated microtiter plates was adapted from a method described by Christman et al., Biochim. Biophys. Acta. […] Microtiter (Immulon) plates were coated with fibrinogen at a concentration of 50-1000 ng/well/0.1 ml of Tris buffered saline (TBS). The plates were dried for 24 hours at 37° C. and 0.1 ml of thrombin (20 NIH units/100 ml) containing TRASYLOL™ (aprotinin) (400 K.I units/100 ml) in TBS was added to each well and the plates incubated for 2 hours at 37° C. Each well is washed one time with PBS and the plates are blocked for 1.5 hours with 1% BSA in TBS to prevent non-specific binding. A constant concentration of fibronectin and the 11 kDa fibrin-binding polypeptide (500 ng/0.1 ml) in 50 mM Tris-HCl, 0.1M NaCl, pH 7.6 (FBB) were incubated separately with fibrin coated microtiter wells (50-1000 ng) for 1 hr at room temperature (23° C.).
# The wells were washed three times with FBB containing 0.05% Tween 20 (FBBT) and incubated for 1 hour with 0.05 ml of the a polyclonal anti-fibronectinantiserum (Calbiochem) or the purified IgG fraction of anti-11 kDa rabbit antisera, respectively, at a concentration of 1 μg/ml in FBBT containing 0.1% BSA (FBBT/BSA). Following three washes with FBBT, the wells were incubated with 0.05 ml of alkaline phosphatase labeled goat anti-rabbit IgG (TAGO) at a concentration of 2 μg/ml in FBBT/BSA, for 1 hour. The reaction was developed with 0.05 ml of […] p-nitrophenyl phosphate (Sigma phosphatase substrate tablets) in 10% diethanolamine, pH 9.8 containing 1 mM MgCl2.
# 2. […] Binding of ^4 F1.^5 F1 to fibrin coated microtiter plates was examined by ELISA as described above. Microtiter wells were coated with fibrin (50-1000 ng) and blocked, as described earlier, and incubated with the module pair ^4 F1.^5 F1 (500 ng/0.1 ml or 1000 ng/0.1 ml in FBB) for 1 hour, at room temperature.
# Fibrin-binding activity was also assessed by an ELISA. Fn was reacted with fibrin-coated microtiter plates and bound Fn was determined by incubation with a polyclonal rabbit anti-Fn antiserum followed by alkaline phosphatase-labeled anti-rabbit Ig.
# fibrinogen = test: Binding of eluted 11 kDa fragment to fibrinogen-SEPHAROSE column; conditions: 37° C.; ethylene glycol eluted material
# fibrin [4] = test: Rebinding of eluted 11 kDa fragment to fibrin column; assay type: binding, bovine
# Procedure: Thus, although 100% of the 11 kDa peptide that was applied to the column could be eluted, only 40-50% of the protein rebound to a second fibrin column at 4° C., and only 20% bound at 37° C.
# The 11 kDa peptide of fibronectin (or 25.9 kDa peptide) and genetically engineered and expressed proteins of fibronectin type I repeat modules are subjected to fibrin-SEPHAROSE™ chromatography as described above.
# fibrin [5] = test: Elution of 11 kDa fragment from fibrin-SEPHAROSE with various agents (Table III); assay type: binding, bovine; conditions: rotated in the cold overnight
# Procedure: Since complete recovery of fibrin-binding activity was desired for use of the molecule in clinical application, various buffers were tested in an attempt to optimize recovery of the peptide while retaining maximal biological activity.
substance,measurement,setting,value
"11 kDa FBP: 11 kDa C-terminal proteolytic (subtilisin) fibrin-binding fragment of human plasma fibronectin, residues 2123-2232 of SEQ ID NO:1",relative affinity for fibrin (from elution conditions),fibrin [1],markedly higher
same,concentration at which maximum inhibition was achieved,fibrin [2],4 µM
same,molar excess at maximum inhibition,fibrin [2],44.4
same,IC50,"fibrin [2]; 15 ng fibrin, 1 hour 22° C., read-out: IC50, 125I-11 kDa binding to fibrin decreased by 50%",605 nM
same,amount bound relative to intact fibronectin on a mole-per-mole basis,fibrin [3],20 times
same,amount giving maximum binding per 550 ng of fibrin,fibrin [3],approximately 500 ng
same,binding to fibrin-coated wells,"fibrin [3]; ELISA, room temperature, 1 hr",bound to the fibrin-coated wells in a concentration dependent manner
same,% of applied material bound to fibrinogen-SEPHAROSE column,fibrinogen,4-5%
same,% Rebound to fibrin,"fibrin [4]; 4° C., eluted with 1.0M KBr",7-10%
same,% Rebound to fibrin,"fibrin [4]; 4° C., eluted with 2.0M Urea",60%
same,% Rebound to fibrin,"fibrin [4]; 4° C., eluted with 4.0M Urea",45-52%
same,% Rebound to fibrin,"fibrin [4]; 4° C., eluted with 6.0M Urea",40-50%
same,% Rebound to fibrin,"fibrin [4]; 4° C., eluted with 6.0M Urea (step dialysis)",40-50%
same,% Rebound to fibrin,"fibrin [4]; 4° C., eluted with ethylene glycol, listed as 11 kDa FRAGMENT",80%
same,% Rebound to fibrin,"fibrin [4]; 4° C., eluted with ethylene glycol, listed as 11 kDa peptide",60%
same,% Rebound to fibrin,"fibrin [4]; 37° C., eluted with 6.0M urea",20%
same,% Rebound to fibrin,"fibrin [4]; 37° C., eluted with ethylene glycol",49.5%
same,% ELUTED from fibrin-SEPHAROSE,"fibrin [5]; agent 1.0M Arginine, listed as 11 kDa FIBRIN-BINDING FRAGMENT",26%
same,% ELUTED from fibrin-SEPHAROSE,"fibrin [5]; agent 1.0M Arginine, listed as 11 kDa peptide",25%
same,% ELUTED from fibrin-SEPHAROSE,fibrin [5]; agent 1.0M KBr,55-65%
same,% ELUTED from fibrin-SEPHAROSE,fibrin [5]; agent 2.0M Urea,32%
same,% ELUTED from fibrin-SEPHAROSE,fibrin [5]; agent 4.0M Urea,50-60%
same,% ELUTED from fibrin-SEPHAROSE,fibrin [5]; agent 6.0M Urea,100%
same,% ELUTED from fibrin-SEPHAROSE,"fibrin [5]; agent 50% ethylene glycol, pH 11.5",77%
